Data published in ChEMBL document CHEMBL3885861, “Open TG-GATES”.

Species: Rattus norvegicus
Assay: Open TG-GATES - Regimen: Single
Format: toxicity, organism-based, Sprague-Dawley
Set-up: regimen Single, gender Male, age 6 weeks
Conditions: in vivo, po, 1000 mg/kg, route gavage, dose level High; for APTT / Bas / Eos / Fbg / Hb / Ht / Lym / MCH / MCHC / MCV / Mono / Neu / PT / Plat / RBC / Ret / WBC: tissue Blood; for KIDNEY_L / KIDNEY_R / KIDNEY_TOTAL: tissue Kidney; for LIVER: tissue Liver

## C[C@H](CS)C(=O)N1CCC[C@H]1C(=O)O [CAPTOPRIL]
3 h
  APTT: 16 s
  Bas: 0%
  Eos: 1%
  Fbg: 204.8 mg/dL
  Hb: 13.6 g/dL
  Ht: 40.9%
  Lym: 76.8%
  MCH: 21.8 pg
  MCHC: 33.1%
  MCV: 65.9 fL
  Mono: 5.6%
  Neu: 16.4%
  PT: 12.1 s
  Plat: 118.1 x10_4/uL
  RBC: 621.6 x10_4/ul
  Ret: 8.4%
  KIDNEY_L: 1 g
  KIDNEY_R: 1 g
  KIDNEY_TOTAL: 2.1 g
3 h, tissue Plasma
  ALP: 661.2 IU/L
  ALT: 37 IU/L
  AST: 61 IU/L
  BUN: 17.4 mg/dL
  CRE: 0.5 mg/dL
  DBIL: 0.006 mg/dL
  GLC: 213 mg/dL
  IP: 9.8 mg/dL
  K: 5 meq/L
  Na: 137.8 meq/L
  PL: 133.6 mg/dL
  RALB: 3.5 g/dL
  TBIL: 0.5 mg/dL
  TC: 79.4 mg/dL
  TG: 53.8 mg/dL
  TP: 5.5 g/dL
  gamma-GTP: 1.4 IU/L
6 h
  TERMINAL_BW: 215.6 g
  APTT: 16.5 s
  Bas: 0%
  Eos: 1%
  Fbg: 205.6 mg/dL
  Hb: 13.4 g/dL
  Ht: 40.4%
  Lym: 79.6%
  MCH: 21.1 pg
  MCHC: 33.1%
  MCV: 63.9 fL
  Mono: 5.2%
  Neu: 14%
  PT: 12.6 s
  RBC: 632.8 x10_4/ul
  Ret: 8.2%
  WBC: 110.9 x10_2/uL
  KIDNEY_L: 1 g
  KIDNEY_R: 1 g
  KIDNEY_TOTAL: 2 g
  LIVER: 9.6 g
6 h, tissue Plasma
  ALP: 736.6 IU/L
  ALT: 32.8 IU/L
  AST: 57.6 IU/L
  BUN: 21.2 mg/dL
  CRE: 0.6 mg/dL
  DBIL: 0.02 mg/dL
  GLC: 211.4 mg/dL
  IP: 9.8 mg/dL
  K: 4.7 meq/L
  LDH: 110.4 IU/L
  Na: 139.6 meq/L
  PL: 112.8 mg/dL
  RALB: 3.6 g/dL
  TBIL: 0.5 mg/dL
  TC: 62.6 mg/dL
  TG: 48.4 mg/dL
  TP: 5.4 g/dL
  gamma-GTP: 1.6 IU/L
9 h
  TERMINAL_BW: 220.7 g
  APTT: 16.6 s
  Bas: 0%
  Eos: 1%
  Fbg: 201.2 mg/dL
  Hb: 12.7 g/dL
  Ht: 38.9%
  Lym: 77.6%
  MCH: 20.8 pg
  MCHC: 32.7%
  MCV: 63.4 fL
  Mono: 4.8%
  Neu: 16.6%
  PT: 12.4 s
  Plat: 113.6 x10_4/uL
  RBC: 613.4 x10_4/ul
  Ret: 8.7%
  KIDNEY_L: 1 g
  KIDNEY_R: 1 g
  KIDNEY_TOTAL: 2 g
  LIVER: 9.1 g
9 h, tissue Plasma
  ALP: 691.6 IU/L
  ALT: 36 IU/L
  AST: 59.4 IU/L
  BUN: 24.4 mg/dL
  CRE: 0.4 mg/dL
  DBIL: 0.08 mg/dL
  GLC: 192.2 mg/dL
  IP: 11 mg/dL
  K: 5.3 meq/L
  LDH: 76 IU/L
  Na: 140 meq/L
  PL: 118.2 mg/dL
  RALB: 3.4 g/dL
  TBIL: 0.5 mg/dL
  TC: 68.4 mg/dL
  TG: 27.4 mg/dL
  TP: 5.1 g/dL
  gamma-GTP: 1.8 IU/L
24 h
  TERMINAL_BW: 237.2 g
  APTT: 16.4 s
  Bas: 0%
  Eos: 1%
  Hb: 12.8 g/dL
  Ht: 38.5%
  Lym: 79%
  MCH: 21.7 pg
  MCHC: 33.2%
  MCV: 65.3 fL
  Mono: 5.2%
  Neu: 14.8%
  PT: 11.3 s
  Plat: 110.3 x10_4/uL
  RBC: 589.4 x10_4/ul
  Ret: 8.4%
  WBC: 95.8 x10_2/uL
  KIDNEY_L: 1.1 g
  KIDNEY_R: 1.1 g
  KIDNEY_TOTAL: 2.1 g
  LIVER: 11.8 g
24 h, tissue Plasma
  ALP: 971.2 IU/L
  ALT: 39.8 IU/L
  AST: 66.4 IU/L
  BUN: 16.8 mg/dL
  CRE: 0.6 mg/dL
  Ca: 11.1 mg/dL
  DBIL: 0.058 mg/dL
  GLC: 200.4 mg/dL
  IP: 8.6 mg/dL
  K: 4.5 meq/L
  LDH: 100.4 IU/L
  Na: 137.8 meq/L
  PL: 142 mg/dL
  RALB: 3.9 g/dL
  TBIL: 0.3 mg/dL
  TC: 81.4 mg/dL
  TP: 5.7 g/dL
  gamma-GTP: 1.2 IU/L
